The conditions of series [1]: cited from earlier work. An excerpt:
So far, very few studies have been conducted for the use of CPPs in the application field of human skin wound healing[12]–[14]. Thus, to our knowledge, we report for the first time on the fusion of a well-characterized cell penetrating peptide, namely sC18, to a wound healing promoting peptide sequence Tylotoin. This latter short peptide was recently identified and isolated from the skin of the salamander Tylototriton verrucosus. […] More precisely, Tylotoin ...

Series [2] relates to human keratinocytes HaCaT. In words: MTT cell viability assay on HaCaT keratinocytes. The format is cell-based. The settings on record: 24 h, 37 °C. As to the method:
Figure 2 Cytotoxic profile of peptides against human keratinocytes HaCaT. Cells were incubated with indicated concentrations of peptides at 37 °C for 24 h. Cell viability of HaCaT cells was determined by MTT assay relative to untreated cells (set to 100%). As positive control, cells were treated with 70% EtOH for 10 min. Experiments were conducted in triplicate with n = 3. Error bars represent standard deviation. (**p < 0.01; ***p < 0.001).
The toxic effect of the investigated peptides on HaCaT cells was evaluated using the [3(4,5-dimethylthiazol-2yl)2,5-diphenyltetrazolium bromide] (MTT) colorimetric method. MTT is a tetrazolium salt which is reduced to a purple colored formazan product by mitochondrial reductases, present only in metabolically active cells. Keratinocytes were seeded onto a 96-well microtiter plate at a density of 8 × 10^4 cells per well in DMEMg supplemented with 2 mM L-Gln and 2% FBS. After reaching 70–80% confluency, the medium was removed and cells were incubated at 37 °C for 24 h with peptides at different concentrations ranging from 10 to 100 µM (in serum-free medium). After 24 h of incubation, 10 µl of MTT (in PBS, 0.45 mg/ml final) were added to each well. After 4 h incubation, the supernatants were removed and the formazan crystals were dissolved by adding 100 μl of dimethyl sulfoxide (DMSO). For the positive control, cells were treated with 70% EtOH for 10 min. The absorption was measured at 570 nm and at a reference wavelength of 630 nm using Tecan infinite M200 plate reader.

In another series the test system is Salmonella typhimurium. The following applies: INT assay, 6 h, 37 °C.
For the next series, the system named is HeLa cells. The series is described as follows: Resazurin-based cell viability assay on HeLa cells. Further details: species or system human. The settings on record: 24 h, serum-free RPMI, triplicate, n = 3. As to the method: Figure 9 The efficacy of Tylotoin-sC18* towards cancer cells. Microscopic image of HeLa cells treated for 30 min with CF-labeled Tylotoin-sC18* (10 µM, green) at 37 °C (A). Quantification of the cellular uptake of 10 µM CF-labeled peptides for 30 min at 37 °C by flow cytometry (B). Cell viability of HeLa cells after treatment for 24 h with Tylotoin-sC18*, sC18* and Tylotoin, respectively (C). Cells treated with 70% ethanol served as positive control. Data are normalized to untreated cells (100% cell viability). Experiments were performed in triplicate with n = 3. Error bars represent standard deviation. (*p < 0.05).
For a resazurin-based cell viability assay, HeLa cells were seeded onto a 96-well plate, grown to 70–80% confluency and incubated with various concentrations of peptides in serum-free RPMI growth medium for 24 h under standard growth conditions. For the positive control, cells were treated with 70% EtOH for 10 min. After washing with serum-free medium, resazurin solution (10% in serum-free media, v/v) was incubated with the cells for 1 h at 37 °C. Subsequently, cell viability was determined relative to untreated cells by measurement of the resorufin product at 595 nm (λex = 550 nm) on a Tecan infinite M200 plate reader.

The test system of the next series is Micrococcus luteus. The format is cell-based, Micrococcus luteus (DSM 20030). The following applies: INT assay, 6 h, 37 °C. The protocol: HaCaT (immortalized human keratinocytes) and HeLa (human cervix carcinoma) cells were cultured in sterile 10 cm petri dishes at 37 °C in a humidified atmosphere of 5% CO2. HaCaT cells were maintained in DMEM containing 4,500 mg/l glucose (DMEMg), 2 mM L-Gln and 10% FBS (fetal bovine serum). HeLa cells were grown in RPMI 1640 supplemented with 4 mM L-Gln and 10% FBS. Bacteria used were Micrococcus luteus (DSM 20030) and Salmonella typhimurium (TA 100). Mueller Hinton (MH) broth agar plates were used for maintenance und MH broth medium was used to carry out antimicrobial activity studies.
Antimicrobial activity of peptide conjugates against gram-positive and gram-negative bacteria was conducted using the p-iodonitrotetrazolium-chloride (INT) violet assay as previously described. INT is a tetrazolium-based reagent which is converted to a pink formazan dye in the presence of metabolically active bacteria.
In brief, M. luteus and S. typhimurium were cultured in MH broth overnight at 37 °C while mild shaking (180 rpm). Overnight-cultured bacteria were added into fresh medium, grown to an optical density of 0.7 at 600 nm and 10 µl bacterial solution were added in triplicate to wells of a 96-well plate (BD Falcon, USA). […] The viability of bacteria relative to untreated bacteria was determined by measuring the absorption at 540 nm on a Tecan infinite M200 plate reader.

The conditions of series [3]: cited from earlier work. An excerpt:
Therefore, it was particularly interesting whether the combination of both, Tylotoin ...
This is another data set of the same source.

Series [4] in a line: Circular dichroism spectroscopy (secondary structure). It is filed as physicochemical. As to the method:
Figure 1 Structural characteristics of investigated peptides. CD spectra were acquired at a peptide concentration of 20 µM in 10 mM phosphate buffer, pH 7.0 (A) and in the additional presence of 50% TFE (B). The percentage of the α-helix content was calculated from the ellipticity value at 222 nm using the following formula: (% α-helix = ((([Θ222]−3000)⁄(−36000−3000)) × 100)[47] (C). R-values represent the ratio between the molar ellipticity values at 222 and 208 nm[20] and R = 1 defined as hallmark for a perfectly built α-helix[48]. Helical wheel projections of Tylotoin-sC18* and sC18*-Tylotoin predicted by HeliQuest (D). TEXT PRINTED IN THE PICTURE: (C) Tylotoin-sC18: Percentage of the α-helix content: phosphate buffer: 12.1; Percentage of the α-helix content: 50% TFE: 46.3; R-value: 0.85 | (C) sC18-Tylotoin: Percentage of the α-helix content: phosphate buffer: 13.1; Percentage of the α-helix content: 50% TFE: 43.5; R-value: 0.87 | (C) Tylotoin-sC18*: Percentage of the α-helix content: phosphate buffer: 10.7; Percentage of the α-helix content: 50% TFE: 46.3; R-value: 0.77 | (C) sC18*-Tylotoin: Percentage of the α-helix content: phosphate buffer: 6.9; Percentage of the α-helix content: 50% TFE: 40.5; R-value: 0.74 | (C) Tylotoin: Percentage of the α-helix content: phosphate buffer: 15.6; Percentage of the α-helix content: 50% TFE: 25.0; R-value: 0.51
CD spectra were recorded from 180 nm to 270 nm in 0.5 nm intervals at 20 °C using a JASCO J-715 spectropolarimeter in an N2 atmosphere. The CD spectra were measured using a 1 mm quartz cuvette and the instrument parameters were set as follows: sensitivity, 100 mdeg; scan mode, continuous; scan speed, 50 nm/min; response time, 2 sec and bandwidth, 1.0 nm. Peptides were dissolved in 10 mM potassium phosphate buffer (pH 7.0) containing either 0 or 50% (v/v) trifluoroethanol (TFE) to a final peptide concentration of 20 µM.

Method for Salmonella typhimurium: Antimicrobial activity of peptide conjugates against gram-positive and gram-negative bacteria was conducted using the p-iodonitrotetrazolium-chloride (INT) violet assay as previously described[33].
In brief, M. luteus and S. typhimurium were cultured in MH broth overnight at 37 °C while mild shaking (180 rpm). Overnight-cultured bacteria were added into fresh medium, grown to an optical density of 0.7 at 600 nm and 10 µl bacterial solution were added in triplicate to wells of a 96-well plate (BD Falcon, USA). The peptides used at various concentrations and 180 µl of MH medium were added to each corresponding well and incubated for 6 h at 37 °C. 10 µM chloramphenicol served as positive control and H20 was used as negative control. After incubation time, 10 μl of the freshly prepared INT solution (1 mg/ml in DMSO) were added to each well and incubated for further 30 min at 37 °C. The viability of bacteria relative to untreated bacteria was determined by measuring the absorption at 540 nm on a Tecan infinite M200 plate reader.

Take “KCVRQNNKRVCK-NH2 [Tylotoin, wound healing promoting peptide from skin of the salamander Tylototriton verrucosus; made as C-terminal amide without disulfide bridge, reference compound]”: the “Wound healing in a murine model” value in series [1] is recorded as “promote wound healing similar to hEGF”. In addition, in series [2] (10 to 100 µM, serum-free medium, triplicate, n = 3), the “Cytotoxic effect on keratinocytes viability” value was “no cytotoxic effect at all”. Also, the “Proliferation of HaCaT cells” value in series [2] was “enhance the proliferation”. Further, the “Antimicrobial activity against S. typhimurium” value with Salmonella typhimurium is given as “no antimicrobial activities”. Besides, the “Cell viability of HeLa cells” value in the series with HeLa cells is “remained unharmed”. Moreover, in the series with Micrococcus luteus, the “Antimicrobial activity against M. luteus” value is given as “no antimicrobial activity”. In series [3], the Antimicrobial activity entry is recorded as “did not show any antimicrobial activity”. Besides, in series [4] (CD, 20 µM peptide, 10 mM phosphate buffer pH 7.0, 20 °C, calculated from ellipticity at 222 nm), the “Percentage of the α-helix content: phosphate buffer” value is 15.6%. The “Percentage of the α-helix content: 50% TFE” value in series [4] (CD, 20 µM peptide, 10 mM phosphate buffer pH 7.0 with 50% TFE, 20 °C, calculated from ellipticity at 222 nm) is reported as 25.0%. Besides, the R-value in series [4] (ratio between molar ellipticity values at 222 and 208 nm, in the presence of 50% TFE, R = 1 perfect α-helix) was 0.51.

The values are drawn from paper PMC6214915, “Design of a novel cell-permeable chimeric peptide to promote wound healing” (Scientific Reports, 2018).
